{"source": "patent US20170016886A1", "about": "“INDUCED PLURIPOTENT STEM CELL MODEL OF NOONAN SYNDROME AND USE THEREOF” (KOREA ADVANCED INSTITUTE OF SCIENCE AND TECHNOLOGY, priority 2014, published 2017)", "key": {"[1]": {"tested_on": "neural rosettes chemically differentiated from NS-iPSCs", "test": "mRNA expression of ectoderm, neural rosette and neural marker genes in neural rosettes chemically differentiated from NS-iPSCs (RT-PCR, q-PCR)", "format": "cell-based, human", "conditions": "stepwise treatment with both dorsomorphin (5 μM) and SB431542 (10 μM) together, versus normal control (H9, CRL12)", "protocol": "To investigate whether or not the neural marker genes were normally expressed in the neural rosettes chemically differentiated from NS-iPSCs, the mRNA expression levels of the ectoderm genes PAX6, ZIC1, NESTIN, and VIMENTIN, and the NR genes PLZF, NR2F1, HES5, and DACH1, and the neural genes TUJ1, ASCL1, and NF1 were measured in the chemically differentiated NS-EBs. Particularly, the neural rosettes chemically differentiated from NS-iPSCs by the same manner as described in Example <6-1> were prepared. […] The expressions of those genes were observed by RT-PCR at mRNA level. As for the normal control, the neural rosettes chemically differentiated from H9 cell line and CRL12 in Example <6-1> were used. […] The expression of NR2F1 gene was measured by q-PCR at mRNA level. As the control group for the normalization of the expression level, GAPDH gene was used so that the expression was also measured. ΔCt value of each gene was calculated by the difference between Ct value of GAPDH and Ct value of NR2F1 gene. As for the control, the human normal embryonic stem cell line H9 and the human normal fibroblast-derived iPSCs (CRL12) were induced into neural rosettes via chemical treatments as described in Example <6-1>. The expressions of those neural rosettes were compared with the gene expression of NS-NR. The results are presented by the fold change calculated by the mathematical formula 1 above."}, "[2]": {"tested_on": "NS-iPSCs (Noonan syndrome patient-derived induced pluripotent stem cells)", "test": "Chemically directed differentiation of NS-iPSCs into embryoid bodies and neural rosettes, cell morphology", "format": "cell-based, human", "conditions": "stepwise treatment with both dorsomorphin (5 μM) and SB431542 (10 μM) together; NS-iPSC #4 and #5; compared with natural differentiation and normal control (H9, CRL12)", "text": "Due to the abnormality in the signal transduction system in Noonan syndrome, EBs and neural rosettes naturally differentiated from NS-iPSCs were abnormally developed. To overcome this problem, the present inventors induced chemically directed differentiation of EBs and neural rosettes from NS-iPSCs by using dorsomorphin (DM) and SB431542 according to the schematic diagram of FIG. 18 (FIG. 18 and Table 6). Particularly, the colonies of NS-iPSC #4 and NS-iPSC #5 induced by the same manner as described in Example <2-1> were quartered by using 1 ml insulin syringe. The quartered NS-iPSCs were loaded on ultra-low attachment dish (SPL life sciences Co., Ltd, Korea), which were resuspended in 4 ml of embryoid body differentiation media which was the DMEM/F12 (Invitrogen, USA) containing 10% serum replacement (SR; GIBCO, USA). The resuspended NS-iPSCs were cultured for 4 days to induce the differentiation into NS-EBs. Then, the differentiated NS-EBs were obtained and cultured for 4˜5 days on the matrigel (1:50, BD biosciences, USA) coated dish in the neural rosette media which consists of DMEM/F12 supplemented with N2, B27 and […] of bFGF (FGF2, R&D systems, USA). The generated Noonan syndrome-derived neural rosettes were mechanically selected and placed on the fibronectin (BD biosciences, USA) coated dish, followed by culture in the neural rosette media for 4˜5 days. […]"}}}
{"smiles": "NC(=O)c1ccc(-c2nc(-c3ccc4c(c3)OCO4)c(-c3ccccn3)[nH]2)cc1", "note": "[SB431542]", "values": [{"measurement": "expression of NR2F1", "setting": "[1]; mRNA level in NS neural rosettes", "result": "decreased"}, {"measurement": "expressions of ectoderm, neural rosette, and neural marker genes", "setting": "[1]; mRNA level", "result": "adjusted to the nearly normal level"}, {"measurement": "cell morphology of the chemically differentiated EBs and neural rosettes", "setting": "[2]", "result": "recovered to a normal shape"}]}
